ChEMBL document CHEMBL3526155, “Endoxifen, the active metabolite of tamoxifen, is a substrate of the efflux transporter P-glycoprotein (multidrug resistance 1)” (Drug Metab Dispos, 2011)

Assays:
MDR1 (ABCB1) [1] = target: T1, MDR1 (ABCB1) (Homo sapiens, UniProt P08183); assay: Activity of human MDR1 expressed in pig LLC-PK cells assessed as apparent permeability from basolateral to apical side at 5 uM after 1 to 4 hrs by LC-MS/MS analysis; assay type: ADME, cell-based; conditions: LLC-PK1
[2] = Apparent permeability from basolateral to apical side in pig LLC-PK cells at 5 uM after 1 to 4 hrs by LC-MS/MS analysis; assay type: ADME, cell-based, Sus scrofa; conditions: LLC-PK1
[3] = Efflux ratio of apparent permeability from basolateral to apical to apical to basolateral side in pig LLC-PK cells at 5 uM after 1 to 4 hrs by LC-MS/MS analysis; assay type: ADME, cell-based, Sus scrofa; conditions: LLC-PK1
[4] = Apparent permeability from apical to basolateral side in pig LLC-PK cells at 5 uM after 1 to 4 hrs by LC-MS/MS analysis; assay type: ADME, cell-based, Sus scrofa; conditions: LLC-PK1
MDR1 (ABCB1) [5] = target: T1, MDR1 (ABCB1); assay: Activity of human MDR1 expressed in pig LLC-PK cells assessed as apparent permeability from apical to basolateral side at 5 uM after 1 to 4 hrs by LC-MS/MS analysis; assay type: ADME, cell-based; conditions: LLC-PK1
MDR1 (ABCB1) [6] = target: T1, MDR1 (ABCB1); assay: Activity of human MDR1 expressed in pig LLC-PK cells assessed as efflux ratio of apparent permeability from basolateral to apical to apical to basolateral side at 5 uM after 1 to 4 hrs by LC-MS/MS analysis; assay type: ADME, cell-based; conditions: LLC-PK1
Plasma [7] = assay: Drug uptake in wild-type CF-1 mouse plasma at 5 mg/kg, po after 0.5 to 4 hrs by LC-MS/MS analysis; assay type: ADME, organism-based; design: dose 5 mg/kg, route oral; conditions: in vivo
Plasma [8] = assay: Drug uptake in MDR1A-deficient CF-1 mouse plasma at 5 mg/kg, po after 0.5 to 4 hrs by LC-MS/MS analysis; assay type: ADME, organism-based; design: dose 5 mg/kg, route oral; conditions: in vivo
Liver [9] = assay: Drug uptake in wild-type CF-1 mouse liver at 5 mg/kg, po after 0.5 to 4 hrs by LC-MS/MS analysis; assay type: ADME, organism-based; design: dose 5 mg/kg, route oral; conditions: in vivo
Liver [10] = assay: Drug uptake in MDR1A-deficient CF-1 mouse liver at 5 mg/kg, po after 0.5 to 4 hrs by LC-MS/MS analysis; assay type: ADME, organism-based; design: dose 5 mg/kg, route oral; conditions: in vivo
Brain [11] = assay: Drug uptake in wild-type CF-1 mouse brain at 5 mg/kg, po after 0.5 to 4 hrs by LC-MS/MS analysis; assay type: ADME, organism-based; design: dose 5 mg/kg, route oral; conditions: in vivo
Brain [12] = assay: Drug uptake in MDR1A-deficient CF-1 mouse brain at 5 mg/kg, po after 0.5 to 4 hrs by LC-MS/MS analysis; assay type: ADME, organism-based; design: dose 5 mg/kg, route oral; conditions: in vivo
[13] = Ratio of drug level in brain to plasma in MDR1A-deficient CF-1 mouse at 5 mg/kg, po after 0.5 to 4 hrs by LC-MS/MS analysis; assay type: ADME, organism-based; design: dose 5 mg/kg, route oral; conditions: read-out: BPR
Brain [14] = assay: Drug uptake in MDR1A-deficient CF-1 mouse brain at 5 mg/kg, po after 0.5 to 4 hrs by LC-MS/MS analysis relative to wild-type; assay type: ADME, organism-based; design: dose 5 mg/kg, route oral; conditions: in vivo

T1 sequence (P08183 whole entry): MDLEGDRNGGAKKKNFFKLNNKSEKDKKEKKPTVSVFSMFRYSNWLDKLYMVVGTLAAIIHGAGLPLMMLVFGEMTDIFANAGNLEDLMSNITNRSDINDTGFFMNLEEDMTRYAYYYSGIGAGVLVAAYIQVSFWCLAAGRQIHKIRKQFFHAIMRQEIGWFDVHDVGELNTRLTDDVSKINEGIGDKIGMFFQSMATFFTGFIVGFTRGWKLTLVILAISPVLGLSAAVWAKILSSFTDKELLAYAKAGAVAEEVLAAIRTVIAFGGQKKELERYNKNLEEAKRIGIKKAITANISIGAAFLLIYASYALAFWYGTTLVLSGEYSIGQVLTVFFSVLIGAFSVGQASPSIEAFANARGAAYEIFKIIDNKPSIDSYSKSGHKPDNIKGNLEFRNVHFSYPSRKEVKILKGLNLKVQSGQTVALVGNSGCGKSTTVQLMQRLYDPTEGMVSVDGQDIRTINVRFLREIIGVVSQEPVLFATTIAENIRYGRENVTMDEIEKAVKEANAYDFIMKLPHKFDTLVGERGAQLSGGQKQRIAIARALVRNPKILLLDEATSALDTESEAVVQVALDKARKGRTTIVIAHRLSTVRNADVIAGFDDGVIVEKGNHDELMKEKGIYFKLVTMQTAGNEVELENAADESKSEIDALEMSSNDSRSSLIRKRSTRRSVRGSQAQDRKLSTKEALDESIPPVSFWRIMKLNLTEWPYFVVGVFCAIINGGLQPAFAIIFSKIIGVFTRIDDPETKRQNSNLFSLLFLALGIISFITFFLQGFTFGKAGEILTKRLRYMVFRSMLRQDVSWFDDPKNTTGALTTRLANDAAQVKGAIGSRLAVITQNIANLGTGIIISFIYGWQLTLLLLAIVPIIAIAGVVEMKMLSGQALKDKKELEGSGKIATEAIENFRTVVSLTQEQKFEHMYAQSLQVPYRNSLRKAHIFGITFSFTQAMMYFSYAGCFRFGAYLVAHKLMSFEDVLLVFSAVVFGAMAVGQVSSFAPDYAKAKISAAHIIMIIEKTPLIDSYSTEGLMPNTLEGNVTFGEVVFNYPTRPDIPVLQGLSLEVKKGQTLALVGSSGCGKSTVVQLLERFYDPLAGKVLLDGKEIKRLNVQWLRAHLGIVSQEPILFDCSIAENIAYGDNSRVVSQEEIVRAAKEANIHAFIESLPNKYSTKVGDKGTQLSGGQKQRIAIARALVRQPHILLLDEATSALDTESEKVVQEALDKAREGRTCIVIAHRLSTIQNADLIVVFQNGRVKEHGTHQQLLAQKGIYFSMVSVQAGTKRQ

| Compound | Papp B→A at 5 µM (MDR1 (ABCB1) [1]) | Papp B→A at 5 µM [2] | efflux ratio at 5 µM [3] | Papp A→B at 5 µM [4] | Papp A→B at 5 µM (MDR1 (ABCB1) [5]) | efflux ratio at 5 µM (MDR1 (ABCB1) [6]) | Drug uptake (Plasma [7]) | Drug uptake (Plasma [8]) | Drug uptake (Liver [9]) | Drug uptake (Liver [10]) | Drug uptake (Brain [11]) | Drug uptake (Brain [12]) | Kp [13] | Ratio (Brain [14]) |
| --- | --- | --- | --- | --- | --- | --- | --- | --- | --- | --- | --- | --- | --- | --- |
| C[C@H]1O[C@@H](O[C@H]2[C@@H](O)C[C@H](O[C@H]3[C@@H](O)C[C@H](O[C@H]4CC[C@@]5(C)[C@H](CC[C@@H]6[C@@H]5C[C@@H](O)[C@]5(C)[C@@H](C7=CC(=O)OC7)CC[C@]65O)C4)O[C@@H]3C)O[C@@H]2C)C[C@H](O)[C@@H]1O [DIGOXIN] | 6.74 ×10⁻⁶ cm/s | – | – | – | – | – | – | – | – | – | – | – | – | – |
| CC/C(=C(\c1ccc(O)cc1)c1ccc(OCCNC)cc1)c1ccccc1 [ENDOXIFEN] | 2.77 ×10⁻⁶ cm/s | 2.15 ×10⁻⁶ cm/s | 1.07 | 1.83 ×10⁻⁶ cm/s | 1.1 ×10⁻⁶ cm/s | 2.67 | Active | Active | Active | Active | Active | Active | > 10 | 20 |
